“Also recorded” adds a separate entry of the source.
Assays:
[1] = kidney injury model; Hye Khan et al. 2016; cited from earlier work
[2] = tested on: RAW264.7 murine macrophages; experiment: LC-MS/MS oxylipin profiling of conditioned medium of debris-stimulated RAW264.7 macrophages; assay type: cell-based; details: 5 μM, 2 hours; paclitaxel-generated ID8 debris
Experimental: Macrophages were treated with vehicle or PTUPB (1-10 μM) in Dulbecco's phosphate-buffered saline containing calcium and magnesium (PBS^+/+) (Lonza, Basel, Switzerland) and incubated for 2 hours at 37° C. Carboplatin- or paclitaxel-generated ID8 or OVCAR5 debris was added to murine or human macrophages, respectively, at a 1:4 (macrophage:dead cell body) ratio and incubated for 1 hour at 37° C. Next, plates were aspirated, macrophages were re-fed with serum-free medium, and incubated overnight at 37° C. The conditioned medium was collected the next day, centrifuged at 1100 rpm for 5 minutes to remove particulates, and stored at −20° C. until further analysis via cytokine array, ELISA, or LC-MS/MS. Collection of RAW264.7 murine macrophage conditioned medium was repeated using debris from three distinct collections for a total of three separate experiments. Collection of human monocyte-derived macrophage conditioned medium was repeated using peripheral blood monocytes from three different human donors and debris from three distinct collections for a total of three separate experiments. Collection of primary murine peritoneal macrophages was repeated using macrophages pooled from 5-10 C57BL/6 female mice and debris from two distinct collections for a total of two separate experiments.
Oxylipins in conditioned medium from 3 biological repeats were analyzed by LC-MS/MS as described previously (Yang et al., Anal. Chem. 81(19):8085-8093 (2009)). In brief, 1 mL of medium was loaded onto the conditioned Oasis HLB solid phase extraction cartridge (Waters, Milford, MA), washed with 5% methanol solution, and eluted with 0.5 mL of methanol and 1.5 mL of ethyl acetate consequently. The elution was concentrated and reconstituted in 50 μL of methanol solution before injection into the UPLC/MS/MS system (Agilent 1200 SL and Sciex 4000 Qtrap system). The optimized parameters for LC-MS/MS were described in detail previously (Yang et al., supra).

[3] = tested on: debris-stimulated orthotopic ovarian tumor (ID8); experiment: Debris-stimulated orthotopic ID8 ovarian tumor model; assay type: in vivo, mice; details: PTUPB 30 mg/kg/day
Experimental: All animal studies were reviewed and approved by the Animal Care and Use Committee of Beth Israel Deaconess Medical Center, Boston, MA Mice were housed at a maximum of 5 animals per cage in a pathogen-free facility with unlimited access to sterile water and chow. Daily welfare evaluations and animal sacrifices were carried out according to the Committee guidelines. For murine injections, chemotherapy-generated murine (ID8) or human (OVCAR5) ovarian tumor cell debris was combined with ID8 or OVCAR5 living cells at equal volumes in PBS. Six-week-old female C57BL/6 (The Jackson Laboratory, Bar Harbor, ME) or SCID mice (Charles River, Cambridge, MA) were injected subcutaneously or intraperitoneally with 100 μL/mouse of ID8 or OVCAR5 cells, respectively. For orthotopic injections, 6-week-old C57BL/6 female mice were injected with 20 μL/mouse of matrigel (Becton Dickinson and Company, Franklin Lakes, NJ) mixed with paclitaxel-generated ID8 debris and/or ID8 living cells at a 1:1 (matrigel:cells) ratio directly into the right ovarian bursa. Systemic treatment with PTUPB (30 mg/kg/day) or control was administered via mini-osmotic pumps (Alzet Inc., Cupertino, CA) implanted into the peritoneum of the mice 4 weeks post-injection. Treatment ended 28 days after implantation of the pumps. […]

With `NS(=O)(=O)c1ccc(-n2nc(CCCNC(=O)Nc3ccc(C(F)(F)F)cc3)cc2-c2ccccc2)cc1` [PTUPB, 4-(5-phenyl-3-{3-[3-(4-trifluoromethyl-phenyl)-ureido]propyl}-pyrazol-1-yl) benzenesulfonamide] as the compound, how does the “release of pro-inflammatory cytokines, such as CCL2/MCP-1” value [1] read?
The value was “suppressed”.

What about the “debris-stimulated surge of COX-derived lipid mediators PGF2α, PGD2, PGJ2 released by macrophages” value [2] of the same compound?
Its value is “suppressed this debris-stimulated surge of bioactive lipids; also recorded: inhibits the surge”.

What about the “reduction of PGE2, THF diol, 15-HETE, 11-HETE, 5-HETE by debris-stimulated macrophages” value [2] of the same compound?
Its value is “neutralized the reduction of these lipids; also recorded: neutralizing the reduction”.

What about the “release of 15-oxoETE by macrophages in the presence of debris” value [2] of the same compound?
Its value is “suppressed the release of 15-oxoETE”.

What about the “debris-stimulated orthotopic ovarian tumor growth” value [3] of the same compound?
The value was “suppressed debris-stimulated orthotopic ovarian tumor growth”.

And the “survival compared to control, paclitaxel-generated debris orthotopic model” value ([3]; log-rank test=7.91, p=0.005)?
Its value is “significantly prolonged survival”.
